Source: ChEMBL document CHEMBL1201862, “PubChem BioAssay data set” (2004)
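48-hour exposure; five concentrations; linearly interpolated endpoints. GI50 = concentration required for 50% inhibition of growth.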 Activity calls are given as the source filed them. No stated cut-off is given here; in the data, active = GI50 up to about 1.1 µM and inactive = higher.

Assays:
Test in all cases: NCI tumour cell line growth inhibition, 48 h
EKVX = test system: EKVX
SK-MEL-2 = test system: SK-MEL-2
UACC-62 = test system: UACC-62
HOP-92 = test system: HOP-92
HCC 2998 = test system: HCC 2998
SW-620 = test system: SW-620
T47D = test system: T47D
RXF 393 = test system: RXF 393
HT-29 = test system: HT-29
A498 = test system: A498
SNB-75 = test system: SNB-75
TK-10 = test system: TK-10
MCF7 = test system: MCF7
CAKI-1 = test system: CAKI-1
HL-60 = test system: HL-60
SK-MEL-28 = test system: SK-MEL-28
M14 = test system: M14
KM12 = test system: KM12
HOP-62 = test system: HOP-62
UACC-257 = test system: UACC-257
Malme-3M = test system: Malme-3M
SF-539 = test system: SF-539
SK-MEL-5 = test system: SK-MEL-5
Hs-578T = test system: Hs-578T
786-0 = test system: 786-0
NCI-H23 = test system: NCI-H23
OVCAR-4 = test system: OVCAR-4
CCRF-CEM = test system: CCRF-CEM
MDA-MB-435 = test system: MDA-MB-435
OVCAR-8 = test system: OVCAR-8
K562 = test system: K562
A549 = test system: A549
MOLT-4 = test system: MOLT-4
MDA-N = test system: MDA-N
UO-31 = test system: UO-31
SN12C = test system: SN12C
LOX IMVI = test system: LOX IMVI
PC-3 = test system: PC-3
NCI-H522 = test system: NCI-H522
DU-145 = test system: DU-145
HCT-116 = test system: HCT-116
SK-OV-3 = test system: SK-OV-3
SF-268 = test system: SF-268
ACHN = test system: ACHN
RPMI-8226 = test system: RPMI-8226
OVCAR-5 = test system: OVCAR-5
COLO 205 = test system: COLO 205
SR = test system: SR
MDA-MB-231 = test system: MDA-MB-231
NCI-H226 = test system: NCI-H226
BT-549 = test system: BT-549
SNB-19 = test system: SNB-19
IGROV-1 = test system: IGROV-1
NCI/ADR-RES = test system: NCI/ADR-RES
NCI-H460 = test system: NCI-H460
SF-295 = test system: SF-295
HCT-15 = test system: HCT-15
OVCAR-3 = test system: OVCAR-3
U-251 = test system: U-251

In the case of `COc1cc(O)c2c(c1)C(O)C(O)CC1OC1C(=O)/C=C/CC(C)OC2=O` (stereo unspecified), the GI50 (EKVX) was 8.53 µM (inactive), the GI50 (SK-MEL-2) was 2.72 µM (inactive) and the GI50 (UACC-62) was 0.0904 µM (active). The GI50 (HOP-92) was 0.354 µM (active), the GI50 (HCC 2998) was 6.34 µM (inactive) and the GI50 (SW-620) was 0.412 µM (active). The GI50 (T47D) was 5.05 µM (inactive), the GI50 (RXF 393) was 0.982 µM (active) and the GI50 (HT-29) was 0.0794 µM (active). For the same compound, the GI50 (A498) was 5.42 µM (inactive), the GI50 (SNB-75) was 6.65 µM (inactive) and the GI50 (TK-10) was 2.28 µM (inactive). For the same compound, the GI50 (MCF7) was 4.07 µM (inactive), the GI50 (CAKI-1) was 1.08 µM (active) and the GI50 (HL-60) was 0.216 µM (active). The GI50 (SK-MEL-28) was 0.194 µM (active), the GI50 (M14) was 0.0933 µM (active) and the GI50 (KM12) was 10.4 µM (inactive). The GI50 (HOP-62) was 18 µM (inactive), the GI50 (UACC-257) was 0.0849 µM (active) and the GI50 (Malme-3M) was 0.029 µM (active). For the same compound, the GI50 (SF-539) was 3.99 µM (inactive), the GI50 (SK-MEL-5) was 1.64 µM (inactive) and the GI50 (Hs-578T) was 10 µM (inactive). For the same compound, the GI50 (786-0) was 3.52 µM (inactive), the GI50 (NCI-H23) was 2.1 µM (inactive) and the GI50 (OVCAR-4) was 3.27 µM (inactive). For the same compound, the GI50 (CCRF-CEM) was 1.26 µM (inactive), the GI50 (MDA-MB-435) was 0.838 µM (active) and the GI50 (OVCAR-8) was 4.13 µM (inactive). For the same compound, the GI50 (K562) was 1.7 µM (inactive), the GI50 (A549) was 20.5 µM (inactive) and the GI50 (MOLT-4) was 2.03 µM (inactive). For the same compound, the GI50 (MDA-N) was 0.454 µM (active), the GI50 (UO-31) was 1.17 µM (inactive) and the GI50 (SN12C) was 3.72 µM (inactive). For the same compound, the GI50 (LOX IMVI) was 3.88 µM (inactive), the GI50 (PC-3) was 11.6 µM (inactive) and the GI50 (NCI-H522) was 1.52 µM (inactive). For the same compound, the GI50 (DU-145) was 15.7 µM (inactive), the GI50 (HCT-116) was 1.11 µM (active) and the GI50 (SK-OV-3) was 19.7 µM (inactive). For the same compound, the GI50 (SF-268) was 10.4 µM (inactive), the GI50 (ACHN) was 3.2 µM (inactive) and the GI50 (RPMI-8226) was 3.1 µM (inactive). For the same compound, the GI50 (OVCAR-5) was 12.2 µM (inactive), the GI50 (COLO 205) was 0.0877 µM (active) and the GI50 (SR) was 2.7 µM (inactive). The GI50 (MDA-MB-231) was 3.86 µM (inactive), the GI50 (NCI-H226) was 12.9 µM (inactive) and the GI50 (BT-549) was 0.979 µM (active). The GI50 (SNB-19) was 19.8 µM (inactive), the GI50 (IGROV-1) was 2.48 µM (inactive) and the GI50 (NCI/ADR-RES) was 3.68 µM (inactive). For the same compound, the GI50 (NCI-H460) was 7.03 µM (inactive), the GI50 (SF-295) was 15.6 µM (inactive) and the GI50 (HCT-15) was 2.93 µM. The GI50 (OVCAR-3) was 2.74 µM (inactive) and the GI50 (U-251) was 8.18 µM (inactive).

For `CCOC(=O)C1=C(C(=O)OCC)SC2(S1)C(C(=O)OCC)=C(C(=O)OCC)Sc1c2ssc1=O`, the GI50 (EKVX) was 2.34 µM (inactive), the GI50 (SK-MEL-2) was 2.17 µM (inactive) and the GI50 (UACC-62) was 1.94 µM (inactive). The GI50 (HOP-92) was 1.35 µM (inactive), the GI50 (HCC 2998) was 2.42 µM (inactive) and the GI50 (SW-620) was 0.361 µM (active). The GI50 (T47D) was 1.76 µM (inactive), the GI50 (RXF 393) was 1.03 µM (active) and the GI50 (HT-29) was 1.76 µM (inactive). For the same compound, the GI50 (A498) was 6.15 µM (inactive), the GI50 (SNB-75) was 1.85 µM (inactive) and the GI50 (TK-10) was 1.73 µM (inactive). For the same compound, the GI50 (MCF7) was 1.74 µM (inactive), the GI50 (CAKI-1) was 2.42 µM (inactive) and the GI50 (HL-60) was 0.279 µM (active). The GI50 (SK-MEL-28) was 1.84 µM (inactive), the GI50 (M14) was 2.04 µM (inactive) and the GI50 (KM12) was 4.52 µM (inactive). The GI50 (HOP-62) was 1.67 µM (inactive), the GI50 (UACC-257) was 1.6 µM (inactive) and the GI50 (Malme-3M) was 1.98 µM (inactive). For the same compound, the GI50 (SF-539) was 0.845 µM (active), the GI50 (SK-MEL-5) was 2.03 µM (inactive) and the GI50 (Hs-578T) was 1.97 µM (inactive). For the same compound, the GI50 (786-0) was 0.811 µM (active), the GI50 (NCI-H23) was 1.93 µM (inactive) and the GI50 (OVCAR-4) was 1.27 µM (inactive). For the same compound, the GI50 (CCRF-CEM) was 0.16 µM (active), the GI50 (MDA-MB-435) was 1.99 µM (inactive) and the GI50 (OVCAR-8) was 1.6 µM (inactive). The GI50 (K562) was 0.474 µM (active), the GI50 (A549) was 2.26 µM (inactive) and the GI50 (MOLT-4) was 0.226 µM (active). For the same compound, the GI50 (MDA-N) was 1.97 µM (inactive), the GI50 (UO-31) was 1.54 µM (inactive) and the GI50 (SN12C) was 0.918 µM (active). For the same compound, the GI50 (LOX IMVI) was 0.239 µM (active), the GI50 (PC-3) was 1.44 µM (inactive) and the GI50 (NCI-H522) was 1.36 µM (inactive). For the same compound, the GI50 (DU-145) was 0.857 µM (active), the GI50 (HCT-116) was 0.815 µM (active) and the GI50 (SK-OV-3) was 6.12 µM (inactive). For the same compound, the GI50 (SF-268) was 1.97 µM (inactive), the GI50 (ACHN) was 1.72 µM (inactive) and the GI50 (RPMI-8226) was 1.59 µM (inactive). The GI50 (OVCAR-5) was 4.7 µM (inactive), the GI50 (COLO 205) was 1.84 µM (inactive) and the GI50 (SR) was < 0.01 µM (active). For the same compound, the GI50 (MDA-MB-231) was 2 µM (inactive), the GI50 (NCI-H226) was 22.1 µM (inactive) and the GI50 (BT-549) was 1.94 µM (inactive). For the same compound, the GI50 (SNB-19) was 3.84 µM (inactive), the GI50 (IGROV-1) was 0.764 µM (active) and the GI50 (NCI/ADR-RES) was 2.71 µM (inactive). For the same compound, the GI50 (NCI-H460) was 8.51 µM (inactive), the GI50 (SF-295) was 15 µM (inactive) and the GI50 (HCT-15) was 0.912 µM. For the same compound, the GI50 (OVCAR-3) was 1.69 µM (inactive) and the GI50 (U-251) was 1.93 µM (inactive).

With `CC(=O)n1cc(C2CC23N=C(c2ccccc2)OC3=O)c2ccccc21` (stereo unspecified) the GI50 (EKVX) was 21.8 µM (inactive), the GI50 (SK-MEL-2) was 21.5 µM (inactive) and the GI50 (UACC-62) was 16.9 µM (inactive). The GI50 (HOP-92) was 22.1 µM (inactive), the GI50 (HCC 2998) was 13.1 µM (inactive) and the GI50 (SW-620) was 19.8 µM (inactive). The GI50 (T47D) was 34.9 µM (inactive), the GI50 (RXF 393) was 16.3 µM (inactive) and the GI50 (HT-29) was 17.9 µM (inactive). The GI50 (A498) was 22.6 µM (inactive), the GI50 (SNB-75) was 19 µM (inactive) and the GI50 (TK-10) was 20 µM (inactive). The GI50 (MCF7) was 19.1 µM (inactive), the GI50 (CAKI-1) was 15.8 µM (inactive) and the GI50 (HL-60) was 2.04 µM (inactive). For the same compound, the GI50 (SK-MEL-28) was 19.7 µM (inactive), the GI50 (M14) was 16.2 µM (inactive) and the GI50 (KM12) was 20.2 µM (inactive). For the same compound, the GI50 (HOP-62) was 21.4 µM (inactive), the GI50 (UACC-257) was 15.7 µM (inactive) and the GI50 (Malme-3M) was 20.6 µM (inactive). The GI50 (SF-539) was 19.5 µM (inactive), the GI50 (SK-MEL-5) was 17.1 µM (inactive) and the GI50 (Hs-578T) was 24.1 µM (inactive). For the same compound, the GI50 (786-0) was 14.8 µM (inactive), the GI50 (NCI-H23) was 16.5 µM (inactive) and the GI50 (OVCAR-4) was 16.3 µM (inactive). The GI50 (CCRF-CEM) was 1.12 µM (inactive), the GI50 (MDA-MB-435) was 21.1 µM (inactive) and the GI50 (OVCAR-8) was 16.6 µM (inactive). The GI50 (K562) was 13.7 µM (inactive), the GI50 (A549) was 21.7 µM (inactive) and the GI50 (MDA-N) was 23.9 µM (inactive). For the same compound, the GI50 (UO-31) was 15.5 µM (inactive), the GI50 (SN12C) was 14.7 µM (inactive) and the GI50 (LOX IMVI) was 16 µM (inactive). For the same compound, the GI50 (PC-3) was 17.8 µM (inactive), the GI50 (NCI-H522) was 15.3 µM (inactive) and the GI50 (DU-145) was 16 µM (inactive). The GI50 (HCT-116) was 14.4 µM (inactive), the GI50 (SK-OV-3) was 49.9 µM (inactive) and the GI50 (SF-268) was 18.3 µM (inactive). For the same compound, the GI50 (ACHN) was 17.7 µM (inactive), the GI50 (RPMI-8226) was 7.87 µM (inactive) and the GI50 (OVCAR-5) was 22 µM (inactive). For the same compound, the GI50 (COLO 205) was 18.4 µM (inactive), the GI50 (SR) was 10.6 µM (inactive) and the GI50 (MDA-MB-231) was 20.8 µM (inactive). For the same compound, the GI50 (NCI-H226) was 23.6 µM (inactive), the GI50 (BT-549) was 14.2 µM (inactive) and the GI50 (SNB-19) was 31.3 µM (inactive). The GI50 (IGROV-1) was 16.8 µM (inactive), the GI50 (NCI/ADR-RES) was 18.2 µM (inactive) and the GI50 (NCI-H460) was 22.4 µM (inactive). For the same compound, the GI50 (SF-295) was 36.7 µM (inactive), the GI50 (HCT-15) was 20.3 µM and the GI50 (OVCAR-3) was 18 µM (inactive). The GI50 (U-251) was 18.1 µM (inactive).
